In patent US20250312258A1, “2,3-PYRROLIDINEDIONE CONJUGATES AND METHODS OF USING THEREOF” (North Carolina State University, priority 2022, published 2025):
In brackets after ≈: the same amount, converted by molar mass. Read-outs that look alike come from different tables or passages of the source.

How the values were obtained:
MRSA (strain LAC) = assay: Time-dependent killing of MRSA (strain LAC); type: cell-based, Staphylococcus aureus; conditions: liquid culture, single inoculation, FIG. 3
Excerpt: FIG. 3 is a plot showing the time-dependent killing of MRSA (strain LAC) by vancomycin and an example vancomycin-2-3-pyrrolidinedione conjugate (Compound 4).
(§1) With these initial results in hand, the time-dependent killing of bacterial strains by the vancomycin-2-3-pyrrolidinedione conjugates was investigated. FIG. 2 is a plot showing the time-dependent killing of S. aureus (strain HG003) by vancomycin and an example vancomycin-2-3-pyrrolidinedione conjugate (Compound 4, also referred to as AV-273). FIG. 3 is a plot showing the time-dependent killing of MRSA (strain LAC) by vancomycin and an example vancomycin-2-3-pyrrolidinedione conjugate (Compound 4).

vanB VRE 51299 = assay: MIC against vanB VRE 51299; type: cell-based, Enterococcus spp.; conditions: Enterococcus
MSSA ATCC 25923 biofilm = assay: Viable bacteria in supernatant and biofilm after single treatment of MSSA biofilm; type: cell-based, Staphylococcus aureus
Excerpt: FIG. 5 is a plot showing the effect of a single dose of different concentrations of Compound 4 on the concentration of bacteria in the supernatant over a methicillin-susceptible Staphylococcus aureus (MSSA ATCC 25923). FIG. 6 is a plot showing the time-dependent biofilm population following treatment of a methicillin-susceptible Staphylococcus aureus (MSSA ATCC 25923) biofilm with Compound 4. […] FIG. 5 is a plot showing the effect of a single dose of different concentrations of Compound 4 on the concentration of bacteria in the supernatant over a methicillin-susceptible Staphylococcus aureus (MSSA ATCC 25923). […] FIG. 6 is a plot showing the time-dependent biofilm population following treatment of a methicillin-susceptible Staphylococcus aureus (MSSA ATCC 25923) biofilm with Compound 4.

VSE 2127 = assay: MIC against VSE 2127; type: cell-based, Enterococcus spp.
S. aureus VRS-2 = assay: VRSA thigh infection model in neutropenic mice; type: in vivo, mouse; conditions: 100 mg/kg IP BID q12h; for bacterial count reduction in thigh tissue relative to the vehicle control group: 26 h post-infection, p<0.05
Method: (§2) FIG. 8 is a plot comparing the efficacy of linezolid, Compound 4 (AV-0273), and Compound 8 (AV-0267) in the S. aureus VRS-2 thigh infection model, CFU/g thigh. Test animals were rendered neutropenic with cyclophosphamide administration, 150 mg/kg on Day −4 then 100 mg/kg on Day −1 prior to infection on Day 0. On Day 0, animals were intramuscularly inoculated with 8.4×10^4 CFU/mouse (0.1 mL/animal) of the S. aureus VRS-2 strain. The vehicle and the test articles, Compound 4 (AV-0273) and Compound 8 (AV-0267), both at 100 mg/kg, were each intraperitoneally (IP) administered twice with a 12 h interval (BID q12h) at 2 and 14 h after infection. The reference standard, linezolid at 50 mg/kg, was orally (PO) administered BID q12 h starting at 2 h post-infection. Animals were sacrificed at 2 or 26 h post-infection, and the thigh tissues were harvested and weighed from each of the test animals. The bacterial counts (CFU/g thigh) of thigh tissue homogenates were measured.
as §2, with “FIG. 9” for “FIG. 8”, “of linezolid” for “of linezolid,”, “CFU/g thigh, change in bacterial counts relative to baseline count at 26h post-infection. Data represent the change in bacterial counts in thigh tissue following test article treatment relative to the initial 2 h CFU/g thigh or CFU/thigh at the time of dosing (baseline counts).” for “CFU/g thigh.”, “(BID q12 h)” for “(BID q12h)”, “(CFU/g thigh and CFU/thigh)” for “(CFU/g thigh)”, “were compared.” for “were measured.”
Example vancomycin-2,3-pyrrolidinediones conjugates were evaluated using an in vivo tissue infection model with vancomycin resistant MRSA:
Animal model: Murine thigh infection
Bacteria: VRSA (VRS-2). Gram Positive, Staphylococcus aureus (VRSA, VRS-2), Mouse Infected Thigh Model. VRS-2 is VanA producing SCC Mec II st5 train.
Vancomycin conjugates dose: 100 mg/Kg intraperitoneally (IP).
Application: This model assesses the antimicrobial efficacy of test articles in a tissue infection model with vancomycin resistant MRSA. Microbial counts are measured. […]

S. aureus (strain HG003) = assay: Time-dependent killing of S. aureus (strain HG003); type: cell-based, Staphylococcus aureus; conditions: S. aureus strain HG003, liquid culture, single inoculation, FIG. 2
Excerpt: FIG. 2 is a plot showing the time-dependent killing of S. aureus (strain HG003) by vancomycin and an example vancomycin-2-3-pyrrolidinedione conjugate (Compound 4).
as §1

VRSA = conditions: S. aureus VRS-2; cited from earlier work

In the case of `CCC1C(c2ccc(C(F)(F)F)cc2)=C(O)C(=O)N1C1CCC(NC)CC1` (stereo not drawn) [Compound 4], the time-dependent killing profile (MRSA (strain LAC)) is reported as “roughly matched vancomycin at the same concentration”, the MIC (vanB VRE 51299; VRE, the 2nd table, read-out: MIC (vanB VRE 51299)) is reported as 2 µg/mL (≈ 5.23 µM) and the MIC (vanB VRE 51299; vanB VRE 51299, the 3rd table, read-out: MIC) is reported as 2 µg/mL (≈ 5.23 µM). For the same compound, the “single dose at which no viable bacterial cells were detected in the treatment supernatant” value (MSSA ATCC 25923 biofilm; MSSA ATCC 25923, detection limit 10^2, FIG. 5) was “at least 16 μg/mL”, the “viable biofilm-embedded bacterial cells” value (MSSA ATCC 25923 biofilm; MSSA ATCC 25923 biofilm, 24 hours after a single treatment at twice the MBEC, FIG. 6) was “no viable biofilm-embedded bacterial cells were detected” and the MIC (VSE 2127; Enterococcus; read-out: MIC (VSE 2127)) was 0.5 µg/mL (≈ 1.31 µM). For the same compound, the “bacterial count reduction in thigh tissue relative to the vehicle control group” value (S. aureus VRS-2) was 100%, the “effect relative to the baseline control” value (S. aureus VRS-2; FIG. 9) was “bacteriostatic effect” and the time-dependent killing profile (S. aureus (strain HG003)) was “roughly matched vancomycin at the same concentration”.
With `CCC1C(c2ccc(C(F)(F)F)cc2)=C(O)C(=O)N1CCCNCCCCNC` (stereo not drawn) [Compound 8] the “bacterial count reduction in thigh tissue relative to the vehicle control group” value (S. aureus VRS-2) was 100%.
Work on `CN[C@H](CC(C)C)C(=O)N[C@H]1C(=O)N[C@@H](CC(N)=O)C(=O)N[C@H]2C(=O)N[C@H]3C(=O)N[C@H](C(=O)N[C@H](C(=O)O)c4cc(O)cc(O)c4-c4cc3ccc4O)[C@H](O)c3ccc(c(Cl)c3)Oc3cc2cc(c3O[C@@H]2O[C@H](CO)[C@@H](O)[C@H](O)[C@H]2O[C@H]2C[C@](C)(N)[C@H](O)[C@H](C)O2)Oc2ccc(cc2Cl)[C@H]1O` [Vancomycin, vancomycin, reference compound] yielded an MIC (vanB VRE 51299; VRE) of 256 µg/mL (≈ 177 µM), an MIC (vanB VRE 51299; VRE, read-out: MIC (vanB VRE 51299)) of 256 µg/mL (≈ 177 µM) and an MIC (VSE 2127; Enterococcus, read-out: MIC (VSE 2127)) of 2 µg/mL (≈ 1.38 µM). For the same compound, the MIC of vancomycin for VRS-2 (strain description) (VRSA) was over 64 µg/mL and the “antibiotic resistance profile of VRS-2: vancomycin” value (VRSA) was over 64 µg/mL.
